Test results published in patent US5658942A, “Octahydronaphthalene oxime compounds for cholesterol synthesis inhibition” (Sankyo Company, Limited, priority 1987, dated 1997).

Key:
[1] = biological target: T1, 3-hydroxy-3-methyl-glutaryl CoA reductase (Rattus norvegicus, UniProt P51639); test: inhibition of 3-hydroxy-3-methyl-glutaryl CoA reductase (method of Kuroda et al.); assay type: biochemical; conditions: read-out: IC50 (concentration to achieve 50% inhibition of 3-hydroxy-3-methyl-glutaryl CoA reductase)
T1 construct: from tissue; host or cells: enzyme system separated from an experimental animal
T1 sequence (P51639 1-887): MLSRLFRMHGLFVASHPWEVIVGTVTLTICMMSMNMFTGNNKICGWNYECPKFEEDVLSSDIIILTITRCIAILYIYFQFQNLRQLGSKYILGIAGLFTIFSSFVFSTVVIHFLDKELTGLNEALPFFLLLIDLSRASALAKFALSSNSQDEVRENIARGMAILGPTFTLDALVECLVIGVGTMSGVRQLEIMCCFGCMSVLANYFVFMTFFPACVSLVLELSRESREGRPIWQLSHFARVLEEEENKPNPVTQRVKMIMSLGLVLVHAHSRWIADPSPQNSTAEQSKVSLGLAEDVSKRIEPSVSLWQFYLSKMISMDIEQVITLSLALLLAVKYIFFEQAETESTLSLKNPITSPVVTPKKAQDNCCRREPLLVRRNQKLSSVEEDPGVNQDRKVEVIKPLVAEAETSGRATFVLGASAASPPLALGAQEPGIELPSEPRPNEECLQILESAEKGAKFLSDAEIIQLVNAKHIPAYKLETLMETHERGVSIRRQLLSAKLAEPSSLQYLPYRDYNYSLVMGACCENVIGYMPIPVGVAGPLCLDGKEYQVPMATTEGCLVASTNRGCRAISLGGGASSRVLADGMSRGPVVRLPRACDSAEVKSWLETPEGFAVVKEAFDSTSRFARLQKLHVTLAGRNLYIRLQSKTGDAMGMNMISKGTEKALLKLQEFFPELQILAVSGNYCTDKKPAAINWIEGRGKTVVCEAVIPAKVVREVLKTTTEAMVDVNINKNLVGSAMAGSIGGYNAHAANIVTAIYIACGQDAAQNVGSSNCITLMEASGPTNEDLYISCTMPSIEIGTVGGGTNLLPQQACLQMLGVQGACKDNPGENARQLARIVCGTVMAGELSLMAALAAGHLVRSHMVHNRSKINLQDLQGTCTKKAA
Text: The compounds of the present invention have a marked ability to reduce the levels of serum cholesterol. Specifically, the biosynthesis of chlolesterol in an enzyme system or a culture cell system separated from an experimental animal is inhibited through competition with the rate limiting enzyme of 3-hydroxy-3-methylglutaryl-CoA reductase. […] The determination of the inhibitory activity of the compounds was made using the method of Kuroda et al ["Biochimica et Biophysica Acta" Vol. 486, pp. 70-81(1977)] which is a modification of the known method of D. J. Shapiro et al ["Analytical Biochemistry" Vol. 31, pp. 383-390(1969)] with some improvements.
The results are shown in Table 2, in which IC50 is the concentration to achieve 50% inhibition of 3-hydroxy-3-methyl-glutaryl CoA reductase (nM).

[2] = test system: serum cholesterol; conditions: animals; J. Antibiotics 29, 1346 (1976); cited from earlier work
[3] = test system: 3-hydroxy-3-methylglutaryl-coenzyme A reductase; conditions: enzymes or cultured cells from experimental animals; competing with HMG-CoA reductase; cited from earlier work

Row | SMILES | IC50 [1] [nM] | reduction of serum cholesterol levels [2] | inhibition of the biosynthesis of cholesterol [3]
1 | CCC(C)C(=O)OC1CCC(=NO)C2=CC(=O)C(C)C(CCC(O)CC(O)CC(=O)O)C21 (stereo not shown) [Compound A, Sodium 1-(2-methylbutyryl)-3,4-dihydro-6-oxo-4-hydroxyiminoiso-ML-236A carboxylate, reference compound] | 35.7 |  | 
2 | CCC(C)C(=O)OC1CCC(=NOC)C2=CC(=O)C(C)C(CCC(O)CC(O)CC(=O)O)C21 (stereo not shown) [Compound B, Sodium 1-(2-methylbutyryl)-3,4-dihydro-6-oxo-4-methoxyiminoiso-ML-236A carboxylate, reference compound] | 39.5 |  | 
3 | CCC(C)C(=O)OC1CCC(=NOCc2ccccc2)C2=CC(=O)C(C)C(CCC(O)CC(O)CC(=O)OCc3ccccc3)C21 (stereo not shown) [Example 1(c), Benzyl-(2-methylbutyryl)-3,4-dihydro-6-oxo-4-benzyl-oxyiminoiso-ML-236A carboxylate] | 33.1 |  | 
4 | CCC(C)C(=O)OC1CCC(=NOCc2cccnc2)C2=CC(=O)C(C)C(CCC(O)CC(O)CC(=O)O)C21 (stereo not shown) [Example 10b, Sodium 1-(2-methylbutyryl)-3,4-dihydro-6-oxo-4-(3-pyridylmethyl)oxyiminoiso-ML-236A Carboxylate] | 31.4 |  | 
5 | CCC(C)C(=O)OC1CCC(=NOCc2ccco2)C2=CC(=O)C(C)C(CCC(O)CC(O)CC(=O)O)C21 (stereo not shown) [Example 11b, Sodium 1-(2-methylbutyryl)-3,4-dihydro-6-oxo-4-furfuryl-oxyiminoiso-ML-236ACarboxylate] | 36 |  | 
6 | CC1C=CC2=CCCC(O)C2C1CCC1CC(O)CC(=O)O1 (stereo not shown) [ML-236A] |  | significantly reduce | inhibit the biosynthesis of cholesterol
7 | CCC(C)C(=O)OC1CCC=C2C=CC(C)C(CCC3CC(O)CC(=O)O3)C21 (stereo not shown) [ML-236B] |  | significantly reduce | inhibit the biosynthesis of cholesterol

The next lines start with results.

Row | IC50 [1] [nM] | SMILES | reduction of serum cholesterol levels [2] | inhibition of the biosynthesis of cholesterol [3]
8 | 26.5 | CCC(C)C(=O)OC1CCC(=NOCc2ccc(F)cc2)C2=CC(=O)C(C)C(CCC(O)CC(O)CC(=O)O)C21 (stereo not shown) [Example 3b, Sodium 1-(2-methylbutyryl)-3,4-dihydro-6-oxo-4-(4-fluorobenzyl)oxyiminoiso-ML-236A Carboxylate] |  | 
9 | 21 | CCC(C)C(=O)OC1CCC(=NOCc2ccc([N+](=O)[O-])cc2)C2=CC(=O)C(C)C(CCC(O)CC(O)CC(=O)O)C21 (stereo not shown) [Example 4b, Sodium 1-(2-methylbutyryl)-3,4-dihydro-6-oxo-4-(4-nitrobenzyl)oxyiminoiso-ML-236ACarboxylate] |  | 
10 | 18.4 | CCC(C)C(=O)OC1CCC(=NOCc2ccccc2CO)C2=CC(=O)C(C)C(CCC(O)CC(O)CC(=O)O)C21 (stereo not shown) [Example 6b, Sodium 1-(2-methylbutyryl)-3,4-dihydro-6-oxo-4-(2-hydroxymethylbenzyl)oxyiminoiso-ML-236A Carboxylate] |  | 
11 | 21.3 | CCC(C)C(=O)OC1CCC(=NOCC=C(C)C)C2=CC(=O)C(C)C(CCC(O)CC(O)CC(=O)O)C21 (stereo not shown) [Example 17b, Sodium 1-(2-methylbutyryl)-3,4-dihydro-6-oxo-4-(3-methyl-2-butenyl)oxyiminoiso-ML-236A Carboxylate] |  | 
